Measured values reported in PubChem BioAssay (NCI).
Values joined by “and” are separate entries in the source; they are usually repeats but may differ in a detail not shown here. Equal entries are not always repeated.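 Method: 48-hour compound exposure of cells in 96-well plates, five concentrations, linear interpolation of endpoints. GI50 is the concentration that inhibits growth by half. The concentration for full growth arrest is given as TGI.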

Columns and labels:
Experiment in all cases: growth of human tumour cells (NCI), 48 h
[1] = test system: NCI/ADR-RES ovarian
[2] = test system: KM20L2 colon
[3] = test system: BT-549 breast
[4] = test system: RXF-631 renal
[5] = test system: MDA-MB-231 breast
[6] = test system: HOP-18 NSCLC
[7] = test system: HS 578T breast
[8] = test system: MDA-N
[9] = test system: DMS 273 small cell lung

Cc1cc(C2CCCCC2)n(O)c(=O)c1
GI50 [1]: 1.22 µM | TGI [1]: 14.9 µM | TGI [2]: > 100 µM | GI50 [3]: 6.19 µM | TGI [3]: > 100 µM | TGI [4]: > 100 µM | GI50 [5]: 2.16 µM | TGI [5]: > 100 µM | TGI [6]: > 100 µM | GI50 [7]: 46 µM | TGI [7]: > 100 µM

CN(C)C(=S)SN(C)C(=O)Nc1ccccc1
TGI [1]: 11.1 µM | TGI [2]: > 100 µM | TGI [3]: > 100 µM | TGI [4]: > 100 µM | TGI [5]: > 100 µM | TGI [8]: 43.3 µM | TGI [9]: 77.6 µM | TGI [7]: > 100 µM

Nc1c(-c2ccc(Br)cc2)[n+]([O-])c2ccccc2[n+]1[O-]
TGI [2]: > 100 µM | TGI [4]: > 100 µM | TGI [6]: > 100 µM | TGI [9]: > 100 µM

CSc1ccc(/C=C2/C[N+](C)(C)C/C(=C/c3ccc(SC)cc3)C2=O)cc1
TGI [4]: > 100 µM | TGI [6]: 79.2 µM

CCOC(=O)NC(=O)c1cn(CCCOC(=O)NCCCCCCNC(=O)OCCCn2c(=O)c(C(=O)NC(=O)OCC)cn(C)c2=O)c(=O)n(C)c1=O
TGI [2]: > 100 µM | TGI [4]: > 100 µM | TGI [6]: > 100 µM | TGI [9]: > 100 µM

CCc1cccc(C)c1NC(C)=O
TGI [2]: > 100 µM | TGI [4]: > 100 µM | TGI [9]: > 100 µM

Cc1ccc(NC(=O)C2C(=O)N(c3ccc(C)c(C)c3)C(=O)/C2=N/O)cc1C (stereo not drawn)
TGI [2]: > 100 µM | TGI [4]: > 100 µM | TGI [6]: > 100 µM | TGI [9]: > 100 µM

CNC=O.[O]=[Ge].[O]=[Ge].[O]=[Ge].[O]=[Ge][OH].[O]=[Ge][OH]
TGI [2]: > 100 µM | TGI [6]: > 100 µM | TGI [9]: > 100 µM

O=S(O)CCCCSSCCCCSSCCCCS(=O)O
TGI [2]: > 100 µM | TGI [4]: > 100 µM | TGI [6]: > 100 µM | TGI [9]: > 100 µM

N#CCCN(CCC#N)c1ccc(C(=O)NN)cc1
TGI [2]: > 100 µM | TGI [4]: > 100 µM | TGI [6]: > 100 µM | TGI [9]: > 100 µM

COC(=O)C(=O)C(C(=O)C(=O)Nc1ccc(C)cc1C)c1nc2ccccc2[nH]c1=O (stereo not drawn)
TGI [2]: > 100 µM | TGI [4]: > 100 µM | TGI [6]: > 100 µM

Cc1cccc(C(C)(C)C)c1NC(=O)CCc1n[nH]c(=S)o1
TGI [2]: > 100 µM | TGI [6]: > 100 µM | TGI [9]: > 100 µM

NCCCNCCSSCCCCS(=O)O
TGI [2]: > 100 µM | TGI [4]: > 100 µM | TGI [6]: > 100 µM | TGI [9]: > 100 µM

O=C1C2=C(CC3C(C2)C3(Br)Br)C(=O)C2=C1CC1C(C2)C1(Br)Br (stereo not drawn)
TGI [2]: > 100 µM | TGI [4]: > 100 µM | TGI [6]: > 100 µM | TGI [9]: > 100 µM

Cc1cccc(N2C(=O)C(Cl)=C(Cl)C2=O)c1
TGI [2]: > 100 µM | TGI [6]: > 100 µM | TGI [9]: > 100 µM

N#Cc1cnsc1
TGI [2]: > 100 µM | TGI [4]: > 100 µM | TGI [6]: > 100 µM | TGI [9]: > 100 µM

C#CC[C@]12CC(=O)CC[C@H]1CC(=O)C2
TGI [2]: > 100 µM | TGI [4]: > 100 µM | TGI [6]: > 100 µM | TGI [9]: > 100 µM

NC1C2(CCCCCC2)NC(=O)C12CCCCCC2 (stereo not drawn)
TGI [4]: > 100 µM | TGI [6]: > 100 µM | TGI [9]: > 100 µM

COC(=O)C(=O)C(C(=O)C=C(C)C)C(=O)C(=O)Nc1ccc(Cl)cc1C (stereo not drawn)
TGI [2]: > 100 µM | TGI [4]: > 100 µM | TGI [6]: > 100 µM | TGI [9]: > 100 µM

COC(=O)c1cc2c(c(C(=O)OC)c1O)C(=O)C=CC2=O
GI50 [2]: > 9.1 µM | TGI [2]: > 56.4 µM | GI50 [4]: > 9.1 µM | TGI [4]: > 71.2 µM | GI50 [6]: 16.3 µM | TGI [6]: 9.1 µM and 29.9 µM | GI50 [9]: > 9.1 µM | TGI [9]: > 71.6 µM

COC(=O)C1=C(c2ccc3c(c2)OCO3)O[C@H](c2ccc3c(c2)OCO3)[C@H]1COC(C)=O
TGI [2]: > 100 µM | TGI [6]: > 100 µM | TGI [9]: > 100 µM

CC(=O)c1ccc(NC(=O)/C(Cc2ccccn2)=N/NC(=O)C[N+](C)(C)C)cc1
TGI [2]: > 100 µM | TGI [4]: > 100 µM | TGI [6]: > 100 µM | TGI [9]: > 100 µM

N#CCCN(c1ccc(/C=C2\N=C(c3ccc(Cl)cc3)OC2=O)cc1)S(=O)(=O)c1ccccc1
TGI [2]: > 100 µM | TGI [4]: > 100 µM | TGI [9]: > 100 µM

N#CCCN(CCC#N)c1ccc(/C=C2\N=C(CN3C(=O)c4ccccc4C3=O)OC2=O)cc1
TGI [2]: > 100 µM | TGI [4]: > 100 µM | TGI [9]: > 100 µM

COC(=O)CSc1n[nH]c(-c2ccc(O)c([N+](=O)[O-])c2)n1
TGI [2]: > 100 µM | TGI [4]: > 100 µM | TGI [9]: > 100 µM
